Patent publication US20240228506A1, “RIPK1 INHIBITORS AND METHODS OF USE” (Merck Sharp & Dohme LLC, priority 2021, published 2024)

What follows are molecules tested against T1, GST-RIPK1 (recombinant GST-RIPK1 kinase domain (residues 1-327)) (Homo sapiens, UniProt Q13546) (assay: RIPK1-ADP-Glo enzymatic assay). Conditions: 25 nM GST-RIPK1, 300 μM ATP, 3 μM dephosphorylated-MBP; 30 minutes pre-incubation, 150 minutes reaction; ten-point titration.
T1 construct: recombinant GST-RIPK1 kinase domain (residues 1-327) enzyme; made in house; host or cells: baculovirus-transfected Sf21 insect cells
T1 sequence (Q13546 1-327): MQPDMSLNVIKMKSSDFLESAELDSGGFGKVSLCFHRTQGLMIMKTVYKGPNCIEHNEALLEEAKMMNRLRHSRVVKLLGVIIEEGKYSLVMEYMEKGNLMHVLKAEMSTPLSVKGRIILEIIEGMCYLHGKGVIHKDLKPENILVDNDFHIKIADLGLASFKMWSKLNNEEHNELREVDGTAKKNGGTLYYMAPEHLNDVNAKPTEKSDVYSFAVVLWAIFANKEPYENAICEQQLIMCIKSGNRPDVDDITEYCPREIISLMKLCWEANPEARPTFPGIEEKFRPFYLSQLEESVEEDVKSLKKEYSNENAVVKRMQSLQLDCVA
Assay type: biochemical
Summary of the method: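 Ten-point 1:3 titrations from 100000 nM, 1% DMSO, were preincubated 30 min with 25 nM GST-RIPK1 (1-327) before starting with 300 μM ATP plus 3 μM dephosphorylated MBP; 150 min reaction. ADP-Glo luminescence measured ATP-to-ADP conversion; EC50 by four-parameter sigmoidal regression.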

SMILES	IC50
CC(C)(C(=O)N1C[C@@H]2C[C@H]1c1cncc(C#Cc3ccc(C(F)F)nc3)c1O2)C(F)F [Compound 2-84, 1-((2S,5S)-9-((6-(difluoromethyl)pyridin-3-yl)ethynyl)-2,3-dihydro-2,5-methanopyrido[3,4-f][1,4]oxazepin-4(5H)-yl)-3,3-difluoro-2,2-dimethylpropan-1-one]	26 nM
CC(C)(C(=O)N1C[C@@H]2C[C@H]1c1cncc(C#Cc3cncc(C#N)c3)c1O2)C(F)F [Compound 2-85, 5-(((2S,5S)-4-(3,3-difluoro-2,2-dimethylpropanoyl)-2,3,4,5-tetrahydro-2,5-methanopyrido[3,4-f][1,4]oxazepin-9-yl)ethynyl)nicotinonitrile]	38 nM
CC(C)(C(=O)N1C[C@@H]2C[C@H]1c1cncc(C#Cc3ccc(C(F)(F)F)nc3)c1O2)C(F)F [Compound 2-86, 3,3-difluoro-2,2-dimethyl-1-((2S,5S)-9-((6-(trifluoromethyl)pyridin-3-yl)ethynyl)-2,3-dihydro-2,5-methanopyrido[3,4-f][1,4]oxazepin-4(5H)-yl)propan-1-one]	31 nM
CC(C)(C(=O)N1C[C@@H]2C[C@H]1c1cncc(C#Cc3ccc(C#N)nc3)c1O2)C(F)F [Compound 2-87, 5-(((2S,5S)-4-(3,3-difluoro-2,2-dimethylpropanoyl)-2,3,4,5-tetrahydro-2,5-methanopyrido[3,4-f][1,4]oxazepin-9-yl)ethynyl)picolinonitrile]	32 nM
CC(C)(C(=O)N1C[C@@H]2C[C@H]1c1cncc(C#Cc3ccc(OC(F)F)nc3)c1O2)C(F)F [Compound 2-88, 1-((2S,5S)-9-((6-(difluoromethoxy)pyridin-3-yl)ethynyl)-2,3-dihydro-2,5-methanopyrido[3,4-f][1,4]oxazepin-4(5H)-yl)-3,3-difluoro-2,2-dimethylpropan-1-one]	35 nM
CC(C)(C(=O)N1C[C@@H]2C[C@H]1c1cncc(C#Cc3cncc(C(F)(F)F)c3)c1O2)C(F)F [Compound 2-89, 3,3-difluoro-2,2-dimethyl-1-((2S,5S)-9-((5-(trifluoromethyl)pyridin-3-yl)ethynyl)-2,3-dihydro-2,5-methanopyrido[3,4-f][1,4]oxazepin-4(5H)-yl)propan-1-one]	34 nM
CC(C)(C(=O)N1C[C@@H]2C[C@H]1c1cncc(C#Cc3cncc(Cl)c3)c1O2)C(F)F [Compound 2-90, 1-((2S,5S)-9-((5-chloropyridin-3-yl)ethynyl)-2,3-dihydro-2,5-methanopyrido[3,4-f][1,4]oxazepin-4(5H)-yl)-3,3-difluoro-2,2-dimethylpropan-1-one]	28 nM
Cc1ccc(C#Cc2cncc3c2O[C@H]2C[C@@H]3N(C(=O)C(C)(C)C(F)F)C2)c(C)n1 [Compound 2-91, 1-((2S,5S)-9-((2,6-dimethylpyridin-3-yl)ethynyl)-2,3-dihydro-2,5-methanopyrido[3,4-f][1,4]oxazepin-4(5H)-yl)-3,3-difluoro-2,2-dimethylpropan-1-one]	65 nM
COc1ccc(C#Cc2cncc3c2O[C@H]2C[C@@H]3N(C(=O)C(C)(C)C(F)F)C2)cn1 [Compound 2-92, 3,3-difluoro-1-((2S,5S)-9-((6-methoxypyridin-3-yl)ethynyl)-2,3-dihydro-2,5-methanopyrido[3,4-f][1,4]oxazepin-4(5H)-yl)-2,2-dimethylpropan-1-one]	19 nM
CC(C)(C(=O)N1C[C@@H]2C[C@H]1c1cncc(C#Cc3cnc4cncn4c3)c1O2)C(F)F [Compound 2-93, 3,3-difluoro-1-((2S,5S)-9-(imidazo[1,5-a]pyrimidin-3-ylethynyl)-2,3-dihydro-2,5-methanopyrido[3,4-f][1,4]oxazepin-4(5H)-yl)-2,2-dimethylpropan-1-one]	58 nM
COc1ncc(C#Cc2cncc3c2O[C@H]2C[C@@H]3N(C(=O)C(C)(C)C(F)F)C2)c(OC)n1 [Compound 2-94, 1-((2S,5S)-9-((2,4-dimethoxypyrimidin-5-yl)ethynyl)-2,3-dihydro-2,5-methanopyrido[3,4-f][1,4]oxazepin-4(5H)-yl)-3,3-difluoro-2,2-dimethylpropan-1-one]	49 nM
Cc1ncc(C#Cc2cncc3c2O[C@H]2C[C@@H]3N(C(=O)C(C)(C)C(F)F)C2)c(C)n1 [Compound 2-95, 1-((2S,5S)-9-((2,4-dimethylpyrimidin-5-yl)ethynyl)-2,3-dihydro-2,5-methanopyrido[3,4-f][1,4]oxazepin-4(5H)-yl)-3,3-difluoro-2,2-dimethylpropan-1-one]	36 nM
O=C(N1C[C@@H]2C[C@H]1c1cncc(C#Cc3cncc(F)c3)c1O2)C12CCC(C(F)(F)F)(CC1)C2 [Compound 2-96, ((2S,5S)-9-((5-Fluoropyridin-3-yl)ethynyl)-2,3-dihydro-2,5-methanopyrido[3,4-f][1,4]oxazepin-4(5H)-yl)(4-(trifluoromethyl)bicyclo[2.2.1]heptan-1-yl)methanone]	48 nM
O=C(N1C[C@@H]2C[C@H]1c1cncc(C#Cc3ccccc3)c1O2)C12CCC(F)(CC1)C2 [Compound 2-97, (4-Fluorobicyclo[2.2.1]heptan-1-yl)((2S,5S)-9-(phenylethynyl)-2,3-dihydro-2,5-methanopyrido[3,4-f][1,4]oxazepin-4(5H)-yl)methanone]	18 nM
COc1cccc(C#Cc2cncc3c2O[C@H]2C[C@@H]3N(C(=O)C34CCC(F)(CC3)C4)C2)c1 [Compound 2-98, (4-fluorobicyclo[2.2.1]heptan-1-yl)((2S,5S)-9-((3-methoxyphenyl)ethynyl)-2,3-dihydro-2,5-methanopyrido[3,4-f][1,4]oxazepin-4(5H)-yl)methanone]	13 nM
N#CCc1cccc(C#Cc2cncc3c2O[C@H]2C[C@@H]3N(C(=O)C34CCC(F)(CC3)C4)C2)c1 [Compound 2-99, 2-(3-(((2S,5S)-4-(4-fluorobicyclo[2.2.1]heptane-1-carbonyl)-2,3,4,5-tetrahydro-2,5-methanopyrido[3,4-f][1,4]oxazepin-9-yl)ethynyl)phenyl) acetonitrile]	10 nM
N#Cc1cccc(C#Cc2cncc3c2O[C@H]2C[C@@H]3N(C(=O)C34CCC(F)(CC3)C4)C2)c1 [Compound 2-100, 3-(((2S,5S)-4-(4-fluorobicyclo[2.2.1]heptane-1-carbonyl)-2,3,4,5-tetrahydro-2,5-methanopyrido[3,4-f][1,4]oxazepin-9-yl)ethynyl)benzonitrile]	12 nM
O=C(N1C[C@@H]2C[C@H]1c1cncc(C#Cc3cccnc3)c1O2)C12CCC(F)(CC1)C2 [Compound 2-101, (4-fluorobicyclo[2.2.1]heptan-1-yl)((2S,5S)-9-(pyridin-3-ylethynyl)-2,3-dihydro-2,5-methanopyrido[3,4-f][1,4]oxazepin-4(5H)-yl)methanone]	12 nM
O=C(N1C[C@@H]2C[C@H]1c1cncc(C#Cc3cncnc3)c1O2)C12CCC(F)(CC1)C2 [Compound 2-102, (4-fluorobicyclo[2.2.1]heptan-1-yl)((2S,5S)-9-(pyrimidin-5-ylethynyl)-2,3-dihydro-2,5-methanopyrido[3,4-f][1,4]oxazepin-4(5H)-yl)methanone]	13 nM
Cc1ccc(C#Cc2cncc3c2O[C@H]2C[C@@H]3N(C(=O)C34CCC(F)(CC3)C4)C2)cc1 [Compound 2-103, (4-fluorobicyclo[2.2.1]heptan-1-yl)((2S,5S)-9-(p-tolylethynyl)-2,3-dihydro-2,5-methanopyrido[3,4-f][1,4]oxazepin-4(5H)-yl)methanone]	21 nM
Cc1cccc(C#Cc2cncc3c2O[C@H]2C[C@@H]3N(C(=O)C34CCC(F)(CC3)C4)C2)c1 [Compound 2-104, (4-fluorobicyclo[2.2.1]heptan-1-yl)((2S,5S)-9-(m-tolylethynyl)-2,3-dihydro-2,5-methanopyrido[3,4-f][1,4]oxazepin-4(5H)-yl)methanone]	23 nM
N#CCc1ccc(C#Cc2cncc3c2O[C@H]2C[C@@H]3N(C(=O)C34CCC(F)(CC3)C4)C2)cc1 [Compound 2-105]	18 nM
CC(C)C#Cc1cncc2c1O[C@H]1C[C@@H]2N(C(=O)C(C)(C)C(F)F)C1 [Compound 2-106, 3,3-Difluoro-2,2-dimethyl-1-((2S,5S)-9-(3-methylbut-1-yn-1-yl)-2,3-dihydro-2,5-methanopyrido[3,4-f][1,4]oxazepin-4(5H)-yl)propan-1-one]	197 nM
CC(C)(C(=O)N1C[C@@H]2C[C@H]1c1cncc(C#CCC3CCOCC3)c1O2)C(F)F [Compound 2-107, 3,3-difluoro-2,2-dimethyl-1-((2S,5S)-9-(3-(tetrahydro-2H-pyran-4-yl)prop-1-yn-1-yl)-2,3-dihydro-2,5-methanopyrido[3,4-f][1,4]oxazepin-4(5H)-yl)propan-1-one]	150 nM
CC(C)(C)CCC#Cc1cncc2c1O[C@H]1C[C@@H]2N(C(=O)C(C)(C)C(F)F)C1 [Compound 2-108, 1-((2S,5S)-9-(5,5-dimethylhex-1-yn-1-yl)-2,3-dihydro-2,5-methanopyrido[3,4-f][1,4]oxazepin-4(5H)-yl)-3,3-difluoro-2,2-dimethylpropan-1-one]	163 nM
CC(C)(C(=O)N1C[C@@H]2C[C@H]1c1cncc(C#CCC3CCCCC3)c1O2)C(F)F [Compound 2-109, 1-((2S,5S)-9-(3-cyclohexylprop-1-yn-1-yl)-2,3-dihydro-2,5-methanopyrido[3,4-f][1,4]oxazepin-4(5H)-yl)-3,3-difluoro-2,2-dimethylpropan-1-one]	184 nM
